The values below come from ChEMBL document CHEMBL1201862, “PubChem BioAssay data set” (2004).

What all share (test): NCI anticancer screen, dose series, 48 h
Experiment [1] concerns RPMI-8226.
Experiment [2] deals with SW-620.
Experiment [3] deals with HOP-92.
In experiment [4] the test system is HCT-15.
Experiment [5] relates to COLO 205.
For experiment [6], the system named is SF-539.
In experiment [7] the test system is RXF 393.
Experiment [8] has as its system KM12.
The subject of experiment [9] is M14.
Experiment [10] concerns HOP-62.
For experiment [11], the system named is LOX IMVI.
Experiment [12] has as its system HT-29.
For experiment [13], the system named is SF-268.
For experiment [14], the system named is MDA-MB-435.
The subject of experiment [15] is NCI-H23.
Experiment [16] deals with NCI-H226.
Experiment [17] relates to ACHN.
The subject of experiment [18] is CAKI-1.
The test system of experiment [19] is SK-MEL-2.
Experiment [20] has as its system OVCAR-4.

Structures are written as SMILES.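 Test compounds were applied to cells in 96-well plates for 48 hours at 5 doses. GI50 is the concentration that inhibits growth by half.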 The source made the active and inactive calls. Rule as the data show it: active = GI50 up to about 1.1 µM and inactive = higher. Bounds are passed on as bounds.

Regarding `CC1(C)C=C(/C=N/Nc2ccc([N+](=O)[O-])cc2)C(C#N)=C(O)C1(C#N)C#N`, the GI50 in experiment [1] is > 100 µM (inactive); in experiment [2], > 100 µM (inactive); in experiment [3] it was > 100 µM (inactive); in [4] it was > 100 µM; in experiment [5], > 100 µM (inactive); in experiment [6], > 100 µM (inactive). The GI50 in experiment [7], in experiment [8], in experiment [9], in experiment [10], in experiment [11] and in experiment [12] was > 100 µM (inactive) throughout. Also, the GI50 in experiment [13], in [14], in [15], in [16], in experiment [17] and in [18] was > 100 µM (inactive) throughout. Moreover, the GI50 in [19] and in [20] was > 100 µM (inactive) each time.

As for `CCOC(=O)C(Cc1cccn1C(=O)OC(C)(C)C)[N+](=O)[O-]` (stereo unspecified), the GI50 in [1] is 20.5 µM (inactive); in experiment [2], 23.8 µM (inactive); in [3] it was 28.2 µM (inactive); in [4] it was 24.3 µM; in experiment [5] it was 20.8 µM (inactive); in [6] it was 22.1 µM (inactive). The GI50 is 17.6 µM (inactive) in experiment [7]; 22.8 µM (inactive) in [8]; 19.2 µM (inactive) in experiment [9]; 23.9 µM (inactive) in [10]; 17.5 µM (inactive) in [11]; 22.3 µM (inactive) in [12]. Besides, the GI50 is 33.9 µM (inactive) in experiment [13]; 26.6 µM (inactive) in experiment [14]; 34.8 µM (inactive) in [15]; 26.1 µM (inactive) in experiment [16]; 22.3 µM (inactive) in [17]; 24.7 µM (inactive) in [18]. In addition, the GI50 was 20.1 µM (inactive) in [19] and 28.6 µM (inactive) in experiment [20].

Turning to `Clc1ccc2c(NCCNC3CCCCC3)ccnc2c1`, the GI50 in [1] was 3.44 µM (inactive); in [2], 12.2 µM (inactive); in experiment [3] it was 5.56 µM (inactive); in experiment [4], 5.4 µM; in experiment [5] it was 1.36 µM (inactive); in [7], 8.95 µM (inactive). In addition, the GI50 was 6.28 µM (inactive) in experiment [8]; 1.77 µM (inactive) in experiment [9]; 11.9 µM (inactive) in experiment [10]; 2.67 µM (inactive) in [11]; 3.15 µM (inactive) in experiment [12]; 9.64 µM (inactive) in experiment [13]. Further, the GI50 in experiment [14] was 3.04 µM (inactive); in experiment [15], 15.7 µM (inactive); in experiment [16], 10.6 µM (inactive); in [17], 12.5 µM (inactive); in experiment [18] it was 5.41 µM (inactive); in experiment [19], 3.22 µM (inactive). Also, the GI50 in experiment [20] is 11.6 µM (inactive).

Regarding `O=C(O)c1c2c(cc3c1CC1(Cc4ccccc4C1)C3)CCC2`, the GI50 in [1] is 33.9 µM (inactive); in experiment [2] it was > 100 µM (inactive); in experiment [3] it was 14.9 µM (inactive); in experiment [4], 82.4 µM; in experiment [5], 57.7 µM (inactive); in experiment [6], > 100 µM (inactive). For the same molecule, the GI50 was > 100 µM (inactive) in experiment [7]; 59.3 µM (inactive) in [8]; > 100 µM (inactive) in [10]; 24.8 µM (inactive) in [11]; 73.8 µM (inactive) in experiment [12]; > 100 µM (inactive) in experiment [13]. For the same molecule, the GI50 in experiment [14] was > 100 µM (inactive); in [15], 67.5 µM (inactive); in experiment [16] it was > 100 µM (inactive); in experiment [17], 32.7 µM (inactive); in [18], 53.2 µM (inactive); in [20] it was 58.2 µM (inactive).

On to `CC1(C)CC(=O)C2=C(C1)OC1=C(CC(C)(C)CC1=O)C2c1ccccc1Cl` (stereo unspecified), for which the GI50 in [1] was > 100 µM (inactive); in [2], > 100 µM (inactive); in experiment [3], > 100 µM (inactive); in experiment [4], > 100 µM; in experiment [5], > 100 µM (inactive); in [6] it was 70.5 µM (inactive). Moreover, the GI50 in experiment [7] is > 100 µM (inactive); in experiment [9] it was > 100 µM (inactive); in [10], 59.2 µM (inactive); in experiment [11], > 100 µM (inactive); in [12], > 100 µM (inactive); in experiment [13], > 100 µM (inactive). The GI50 in experiment [14], in experiment [15], in experiment [16], in [17], in experiment [18] and in [19] was > 100 µM (inactive) throughout. In addition, the GI50 in experiment [20] was > 100 µM (inactive).

In the case of `O=C(Cc1nc2ccc(C(=O)c3ccccc3)cc2nc1O)C(=O)Nc1ccc(Br)cc1`, the GI50 in experiment [1] is 99.3 µM (inactive); in experiment [2], > 100 µM (inactive); in [3], 71 µM (inactive); in experiment [4] it was 54.3 µM; in experiment [6], > 100 µM (inactive); in experiment [7], > 100 µM (inactive). The GI50 in experiment [8] was 34.8 µM (inactive); in [9], > 100 µM (inactive); in [10], > 100 µM (inactive); in [11], 79.4 µM (inactive); in [12], > 100 µM (inactive); in experiment [13], > 100 µM (inactive). Besides, the GI50 in experiment [14] is 44.4 µM (inactive); in experiment [15] it was > 100 µM (inactive); in experiment [16] it was 78.2 µM (inactive); in [17] it was 71.8 µM (inactive); in experiment [18], 40.1 µM (inactive); in [19], > 100 µM (inactive). Besides, the GI50 in experiment [20] is 44.4 µM (inactive).

On to `C[C@H](O)C1CC(Cn2nnc3c(N)ncnc32)C1(C)C` (stereo partly specified), for which the GI50 in experiment [2] is > 100 µM (inactive); in experiment [3], > 100 µM (inactive); in experiment [4], > 100 µM; in [6] it was > 100 µM (inactive); in experiment [7] it was > 100 µM (inactive); in experiment [8], > 100 µM (inactive). Further, the GI50 in experiment [9], in experiment [10], in experiment [11], in experiment [13], in experiment [14] and in experiment [16] was > 100 µM (inactive) throughout. Moreover, the GI50 in experiment [17], in [18], in experiment [19] and in experiment [20] was > 100 µM (inactive) each time.

Consider `NNc1nc2ccccc2c(=O)n1NC(=O)C(=O)Nc1cccc(C(F)(F)F)c1`, for which the GI50 in experiment [1] was > 100 µM (inactive); in experiment [2], > 100 µM (inactive); in experiment [3] it was > 100 µM (inactive); in [4], > 100 µM; in experiment [6] it was > 100 µM (inactive); in [7], > 100 µM (inactive). Further, the GI50 in experiment [8], in experiment [9], in [10], in experiment [11], in [12] and in experiment [13] was > 100 µM (inactive) throughout. In addition, the GI50 in [14], in [15], in [16], in experiment [17], in experiment [18] and in experiment [19] was > 100 µM (inactive) throughout. The GI50 in [20] is > 100 µM (inactive).

With `CN(CCNC(=O)c1cn(C)c2c1ccc1cc(Cl)ccc12)CCNC(=O)c1cn(C)c2c1ccc1cc(Cl)ccc12`, the GI50 in [2] is 5.28 µM (inactive); in experiment [3], 5.85 µM (inactive); in experiment [4], 1.78 µM; in experiment [5] it was 1.2 µM (inactive); in experiment [6], 4.78 µM (inactive); in experiment [7] it was 1.57 µM (inactive). Also, the GI50 in [8] was 1.67 µM (inactive); in experiment [9], 1.59 µM (inactive); in experiment [10], 1.79 µM (inactive); in [11] it was 5.71 µM (inactive); in experiment [12], 1.93 µM (inactive); in experiment [13] it was 1.77 µM (inactive). Moreover, the GI50 in experiment [14] was 1.44 µM (inactive); in experiment [15], 2.01 µM (inactive); in experiment [16], 25.9 µM (inactive); in experiment [17] it was 5.25 µM (inactive); in experiment [18], 1.6 µM (inactive); in experiment [19], 6.92 µM (inactive). Moreover, the GI50 in [20] was 1.66 µM (inactive).

For the molecule `NC(CSC1c2ccccc2-c2ccccc21)C(=O)O` (stereo unspecified), the GI50 in [1] was > 100 µM (inactive); in [2], > 100 µM (inactive); in experiment [3], > 100 µM (inactive); in experiment [4], > 100 µM; in experiment [5], > 100 µM (inactive); in experiment [6], > 100 µM (inactive). The GI50 in [7], in experiment [8], in experiment [9], in experiment [10], in experiment [11] and in [12] was > 100 µM (inactive) in each case. Besides, the GI50 in [14], in experiment [15], in [16], in experiment [17], in experiment [18] and in experiment [19] was > 100 µM (inactive) in each case. The GI50 in experiment [20] was > 100 µM (inactive).

Take `O=[As](O)(O)c1ccc(NCc2ccccc2)cc1`: the GI50 was > 100 µM (inactive) in experiment [1]; > 100 µM (inactive) in experiment [3]; > 100 µM in experiment [4]; > 100 µM (inactive) in [5]; > 100 µM (inactive) in experiment [7]; > 100 µM (inactive) in [8]. Besides, the GI50 in experiment [9], in experiment [10], in experiment [11], in experiment [12], in experiment [13] and in experiment [14] was > 100 µM (inactive) throughout. Further, the GI50 in experiment [15] is 92.9 µM (inactive); in [16], > 100 µM (inactive); in experiment [17], > 100 µM (inactive); in [18] it was > 100 µM (inactive); in experiment [19], > 100 µM (inactive); in [20] it was > 100 µM (inactive).
